Format in all cases: cell-based
The test system of one assay is KG1. As to the kind of experiment: AraC EC50 in parental and AraC resistant cells. The following applies: Homo sapiens.
The subject of a further assay is SKM1. As to the kind of experiment: AraC EC50 in parental and AraC resistant cells. Conditions: Homo sapiens.
The next assay concerns HL60. As to the kind of experiment: AraC EC50 in parental and AraC resistant cells. The following applies: Homo sapiens.
The next assay deals with RAMOS. As to the kind of experiment: Pancancer cell line panel viability. The following applies: 10 µM, 48 h. Here is the method: (§1) First, 2 × 10^5 (72 h assays in cell lines (Supplementary File S1)), 3 × 10^5 (48 h assays in cell lines) or 7.5 × 10^5 (primary AML, healthy donor buffy coats) cells per mL were cultured in 96-well plates, and all drugs were added at the indicated concentrations. In α-tocopherol experiments, cells were treated with growing concentrations of α-tocopherol and EDK drugs for 48 h. In the NAC and 3MA experiments, treatment was simultaneous with EDK compounds. In glucose deprivation experiments, cells were cultivated with a standard medium (glucose high, 2 g/L), a standard medium without glucose, or a standard medium with galactose (2 g/L) and without glucose. Cell viability was measured via 7-AAD (eBioscience) exclusion and Hoechst33342 (Sigma-Aldrich, St. Louis, MO, USA) positivity staining via flow cytometry, and the cell count was obtained through volume. In the experiments with the primary cells, analyses were performed inside the blast population as detected via blast gates (CD45^low SSC^int). For solid tumor cell lines, viability was analyzed using CellTiter-Glo® Luminescent Cell Viability Assay (Promega).
(§2) AML cell lines and cell cultures
(§3) Cell lines HL-60 (ACC-3), KG-1 (ACC-14), MonoMac-1 (ACC-252), Kasumi-1 […]
(§4) obtained from DSMZ. Cell lines THP-1 (TIB-202TM), MCF-7 (HTB-22™), MDA- […]
(§5) 3216™) and HS-5 (CRL-11882™) were obtained from ATCC. HBL-2 cell line was kindly supplied by Dr. Pérez-Galán (IDIBAPS, Barcelona, Spain). SKM-1 and U937 were kindly provided by Dr. Marcus Buschbeck (IJC, Badalona, Spain). All cell lines were cultured in the conditions indicated by the providers, and were tested for mycoplasma on a monthly basis.
(§6) All drugs were resuspended in H2O (Thermo Fischer Scientific), DMSO (Sigma-Aldrich) or ethanol (VWR) according to manufacturer’s specifications. - tocopherol, 3-methyladenine (3MA), arsenic trioxide (ATO) and N-acetyl-L-cysteine (NAC) were purchased from Sigma Aldrich. Chloroquine diphosphate was purchased from Merck. Etoposide and ionomycin were purchased from […]
(§7) (1 picture or pasted object on this page, not shown here)

The next assay relates to HCT-116. As to the kind of experiment: Pancancer cell line panel viability. Conditions: 10 µM, 48 h. Here is the method: as §1, §2, §3, §4, §5, §6, §7
The next assay has as its system NCI. As to the kind of experiment: Pancancer cell line panel viability. Conditions: 10 µM, 48 h. Here is the method: as §1, §2, §3, §4, §5, §6, §7
For the next assay, the system named is JJN3. As to the kind of experiment: Pancancer cell line panel viability. The following applies: 10 µM, 48 h. The method, then:
as §1, §2, §3, §4, §5, §6, §7

The next assay concerns DU-145. As to the kind of experiment: Pancancer cell line panel viability. The following applies: 10 µM, 48 h. The method, then: as §1, §2, §3, §4, §5, §6, §7
Another assay has as its system GRANTA. As to the kind of experiment: Pancancer cell line panel viability. The following applies: 10 µM, 48 h. Here is the method: as §1, §2, §3, §4, §5, §6, §7
Another assay concerns U266. As to the kind of experiment: Pancancer cell line panel viability. Conditions: 10 µM, 48 h. The method, then: as §1, §2, §3, §4, §5, §6, §7
The test system of the next assay is HOP62. Briefly: Pancancer cell line panel viability. The following applies: 10 µM, 48 h. The method, then:
as §1, §2, §3, §4, §5, §6, §7

In another assay the test system is PC-3. Briefly: Pancancer cell line panel viability. The following applies: 10 µM, 48 h. The method, then: as §1, §2, §3, §4, §5, §6, §7
The test system of the next assay is HBL2. As to the kind of experiment: Pancancer cell line panel viability. Conditions: 10 µM, 48 h. The method, then:
as §1, §2, §3, §4, §5, §6, §7

For the next assay, the system named is Jurkat. Briefly: Pancancer cell line panel viability. The following applies: 10 µM, 48 h. The method, then: as §1, §2, §3, §4, §5, §6, §7
The next assay has as its system K562. Briefly: Pancancer cell line panel viability. The following applies: 10 µM, 48 h. Here is the method:
as §1, §2, §3, §4, §5, §6, §7

Another assay concerns MDA-MB-435. As to the kind of experiment: Pancancer cell line panel viability. Conditions: 10 µM, 48 h. The method, then: as §1, §2, §3, §4, §5, §6, §7
For another assay, the system named is MDA-MB-231. Briefly: Pancancer cell line panel viability. The following applies: 10 µM, 48 h. The method, then: as §1, §2, §3, §4, §5, §6, §7
A further assay concerns CAKI. Briefly: Pancancer cell line panel viability. The following applies: 10 µM, 48 h. The method, then:
as §1, §2, §3, §4, §5, §6, §7

In the next assay the test system is MCF-7. As to the kind of experiment: Pancancer cell line panel viability. Conditions: 10 µM, 48 h. The method, then:
as §1, §2, §3, §4, §5, §6, §7

The next assay concerns OVCAR. Briefly: Pancancer cell line panel viability. Conditions: 10 µM, 48 h. The method, then:
as §1, §2, §3, §4, §5, §6, §7

The subject of the next assay is MOLT4. Briefly: Pancancer cell line panel viability. Conditions: 10 µM, 48 h. The method, then:
as §1, §2, §3, §4, §5, §6, §7

The subject of another assay is SR. As to the kind of experiment: Pancancer cell line panel viability. Conditions: 10 µM, 48 h. The method, then:
as §1, §2, §3, §4, §5, §6, §7

In the next assay the test system is ACHN. Briefly: Pancancer cell line panel viability. The following applies: 10 µM, 48 h. The method, then: as §1, §2, §3, §4, §5, §6, §7
For another assay, the system named is A549. Briefly: Pancancer cell line panel viability. The following applies: 10 µM, 48 h. Here is the method:
as §1, §2, §3, §4, §5, §6, §7

A further assay has as its system HCT-15. As to the kind of experiment: Pancancer cell line panel viability. The following applies: 10 µM, 48 h. Here is the method:
as §1, §2, §3, §4, §5, §6, §7

For another assay, the system named is M14. As to the kind of experiment: Pancancer cell line panel viability. The following applies: 10 µM, 48 h. The method, then: as §1, §2, §3, §4, §5, §6, §7
A further assay has as its system HS-5. As to the kind of experiment: Pancancer cell line panel viability (nontumor line). The following applies: HS-5 (nontumor); 10 µM; 48 h. Here is the method: as §1, §2, §3, §4, §5, §6, §7
Another assay has as its system HEK-293T. The assay is described as above. Conditions: HEK-293T (nontumor); 10 µM; 48 h. Here is the method: as §1, §2, §3, §4, §5, §6, §7
In assay [1] the test system is intracellular calcium in HL60 cells. Briefly: Calcium mobilization assay (Fura2 probe). The following applies: 10 µM EDK-87/EDK-88, 50 µM chloroquine. The method, then:
1,000 cells of AML cell lines or 50,000 primary cells (both AML and lin-depleted UCB) were treated at the indicated concentration for 18 h, and cultured in 1 mL of MethoCult H4034 Optimum (StemCell Technologies, Vancouver, BC, Canada).
Colonies were screened based on morphology and cellularity at day 7 (cell lines) […]
Calcium mobilization assay
1 x 10^6 cells per mL were loaded for 30’ at 37 °C with the Fura-2-AM probe (Thermo Fisher) at a final 2 µM concentration in pre-warmed calcium- and magnesium-free Hanks BSA solution. Cells were then washed and resuspended in Hanks BSA solution with calcium and magnesium at 3 x 10^5 cells per mL. In parallel, 50µL of drugs in Hanks BSA solution with calcium and magnesium were added to 96-well black wall clear bottom plates and background fluorescence […]
Cells were then added to the plate
(50µL/well) and fluorescence was acquired at indicated timepoints using a Synergy HT Multi-Detection Microplate Reader (BioTek). For the analysis, all values were subtracted their corresponding background fluorescence, and the ratio 340/380 was calculated. Finally, ratios were normalized to vehicle-treated […]
Semi-Quantitative Real Time PCR
Background: A change in cytosolic calcium serves as a functional read-out for many receptors and channels.

Broadly, the EC50 is the midpoint of the concentration-response curve. Turning to `Nc1ccn([C@@H]2O[C@H](CO)[C@@H](O)[C@@H]2O)c(=O)n1` [AraC, cytarabine], the EC50 in the assay with KG1 (KG-1, KG1 AraCR (AraC resistant)) came to 0.4 µM; in the assay with KG1 (KG-1, KG1 WT), 0.05 µM; in the assay on SKM1 (SKM-1, SKM1 AraCR (AraC resistant)) it was 4.86 µM; with SKM1 (SKM-1, SKM1 WT), 0.116 µM; with HL60 (HL-60, HL60 AraCR (AraC resistant)), 0.22 µM; in the assay with HL60 (HL-60, HL60 WT), 0.0298 µM.

`CCN(CC)CCCC(C)Nc1ccnc2cc(Cl)ccc12` (centres unmarked) [CHL, chloroquine, reference compound]: the # Live cells refer to control with RAMOS worked out at 115%; in the assay with HCT-116, 80%; in the assay on NCI, 69%; in the assay with JJN3 it was 84%; in the assay on DU-145, 54%; in the assay on GRANTA, 51%. Also, the # Live cells refer to control in the assay with U266 was 67%; in the assay on HOP62, 55%; in the assay with PC-3, 63%; in the assay with HBL2, 62%; in the assay on Jurkat, 94%; in the assay with K562 it was 105%. Further, the # Live cells refer to control came out at 44% in the assay on MDA-MB-435; 50% in the assay on MDA-MB-231; 55% in the assay on CAKI; 54% with MCF-7; 74% in the assay with OVCAR; 57% in the assay with MOLT4. For the same compound, the # Live cells refer to control in the assay on SR came out at 23%; in the assay on ACHN, 93%; in the assay on A549, 59%; in the assay on HCT-15, 77%; in the assay on M14, 42%; with HS-5, 74%. For the same compound, the # Live cells refer to control with HEK-293T was 67%. Moreover, the intracellular calcium mobilization entry in [1] is “failed to mobilize intracellular calcium”.

Source of the values: PMC10047683, “A Novel Family of Lysosomotropic Tetracyclic Compounds for Treating Leukemia” (Cancers, 2023).
